Reference: article PMC8540642, “Antineoplastic Activity of Rhus trilobata Nutt. (Anacardiaceae) against Ovarian Cancer and Identification of Active Metabolites in This Pathology” (Plants, 2021)
Like-named read-outs stand apart in the source and are kept apart here.

Columns and labels:
SKOV-3 cells [1] = test: Apoptosis (ApoTox-Glo Triplex caspase-3/7, ApoAlert DNA fragmentation/TUNEL); type: cell-based, human; details: 24 h, vehicle group 2.47% ± 0.4%
Protocol: Cells (2 × 10^4/per well) were cultivated in 96-well black plates (Corning®, Corning, NY, USA) with 100 μL of supplemented medium (Sigma®, St. Louis, MO, USA) and incubated for 24 h. Treatments on adherent cells were conducted at 5-20 μg/mL of samples/controls for 24 h. Then, ApoTox-Glo™ Triplex Assay (Promega®, Madison, WI, USA) was used to determine events of viability (proliferation), cytotoxicity (necrosis), and apoptosis (caspase-3/7 activation). Additionally, apoptosis was confirmed by an ApoAlert™ DNA Fragmentation Assay (Clontech®, Kusatsu, Shiga, J.P.). Both assays were performed according to each manufacturer’s instructions. Finally, optical density was measured in a VariosKan® Flash (Thermo-Scientific®, Waltham, MA, USA).

BEAS-2B cells = test: MTT cell viability, dose-response curves 24 h; type: cell-based; details: Homo sapiens, BEAS-2B, MTT, read-out: IC50 (half-maximal inhibitory concentration), BEAS-2B
Protocol: (§1) Cultures (2 × 10^4 cells/well) were seeded with 200 μL of supplemented medium (Sigma®) in 96-well plates (Corning®, Corning, NY, USA) and incubated for 24 h. Cell treatments were 5-200 μg/mL of samples/controls for 24 h. At the end of the treatments, we added MTT (5 mg/mL, Sigma®) for 4 h of incubation, and optical density was measured at λ = 590 nm in a VariosKan® Flash (Thermo-Scientific®, Waltham, MA, USA). The half-maximal inhibitory concentration (IC50) was determined.

OVCAR-3 cells = test: MTT cell viability, dose-response curves 24 h; type: cell-based; details: Homo sapiens, OVCAR-3, MTT, 24 h, read-out: IC50 (half-maximal inhibitory concentration), OVCAR-3
Protocol: as §1

CHO-K1 cells = test: MTT cell viability, dose-response curves 24 h; type: cell-based; details: Cricetulus griseus, CHO-K1, 24 h, MTT, 24 h, read-out: IC50 (half-maximal inhibitory concentration), CHO-K1
Protocol: as §1

CACO-2 cells = test: MTT cell viability, dose-response curves 24 h; type: cell-based; details: Homo sapiens, Caco-2, MTT, 24 h, read-out: IC50 (half-maximal inhibitory concentration), CACO-2
Protocol: as §1

SKOV-3 cells [2] = test: MTT cell viability, dose-response curves 24 h; type: cell-based, human; details: Homo sapiens, SK-OV-3, MTT, 24 h, read-out: IC50 (half-maximal inhibitory concentration), SKOV-3
Protocol: as §1

## CC(=O)O[C@H]1C(=O)[C@@]2(C)[C@H]([C@H](OC(=O)c3ccccc3)[C@]3(O)C[C@H](OC(=O)[C@H](O)[C@@H](NC(=O)c4ccccc4)c4ccccc4)C(C)=C1C3(C)C)[C@]1(OC(C)=O)CO[C@@H]1C[C@@H]2O [Paclitaxel, paclitaxel, reference compound]
SKOV-3 cells [1]
  apoptosis: caspase-3/7 activity and nuclear DNA-fragmentation: 46.42% ± 5.0%
BEAS-2B cells
  IC50: 8 µg/mL
BEAS-2B cells; value in brackets
  IC50: 9.37 µM
OVCAR-3 cells
  IC50: 8 µg/mL
OVCAR-3 cells; value in brackets
  IC50: 9.37 µM
CHO-K1 cells
  IC50: 10 µg/mL
CHO-K1 cells; value in brackets
  IC50: 11.7 µM
CACO-2 cells
  IC50: 20 µg/mL
CACO-2 cells; value in brackets
  IC50: 23.4 µM
SKOV-3 cells [2]
  IC50: 7 µg/mL
SKOV-3 cells [2]; value in brackets
  IC50: 8.2 µM
